# Square brackets hold non-standard residues; d marks the D form. Primed or numbered codes have the meaning given here. Ends that are not written are not given here. * marks the point of attachment. Myristoyl = CCCCCCCCCCCCCC(=O)*; pS′ = not defined here
# How the values were obtained:
# [1] = molecular target: T1, 14-3-3 proteins / bD15Lp peptide (last 15 amino acid residues of GPIbα) (UniProt P07359+P49106); test: Binding of 32P-labelled 14-3-3 (GF14-6) to resin-bound bD15Lp phosphopeptide; settings: 10 μM FC; resin-bound radioactivity; no binding in the absence of FC
# T1 construct: GST (pGEX-2TK, with protein kinase A site at the junction, 32P-labelled) (N); made in house; host or cells: E. coli (14-3-3); peptide synthesized by Neosystem
# Procedure: (§1) Peptides were immobilized onto streptavidin-agarose resin and incubated with ^32P-labelled 14-3-3 in the absence or in the presence of 10 μM FC. After washing, radioactivity associated with the resin was measured. Data are the mean of three independent experiments.
# (§2) 0.5 nmol of biotinylated peptides were immobilized onto 40 μl of streptavidin-agarose resin (Sigma-Aldrich) and incubated in 50 μl of buffer H with 3 μg of ^32P-labelled GF14-6 (1.4 kBq/μg) for 60 min at room temperature in the absence or in the presence of 10 μM FC. Resin was then centrifuged at 2000×g for 5 min and washed three times with 1 ml of buffer H. Resin-bound radioactivity was measured in a liquid scintillation β-counter Packard Tri Carb 2100TR (Canberra, Australia).
# (§3) A phosphorylated biotinyl-peptide (bD15Lp), reproducing the last 15 amino acid residues of GPIbα, and containing the 14-3-3 binding sequence, was used in interaction studies with 14-3-3 proteins to verify the ability of FC to stimulate the interaction. The unphosphorylated corresponding peptide ([…]) and peptides reproducing the last 15 amino acids of the H^+-ATPase in unphosphorylated (bL15V) and phosphorylated form (bL15Vp) were used as control.
# (§4) The peptides were immobilized onto a streptavidin-agarose resin and incubated with ^32P-labelled 14-3-3 proteins.
# [2] = test system: platelet aggregation (PRP); test: Platelet aggregation in PRP (turbidometric aggregometer); format: cell-based, human; settings: for Platelet agglutination/aggregation induced: different FC concentrations, ristocetin 1 mg/ml
# Procedure: Aggregation was studied with PRP using a turbidometric aggregometer as described in the Materials and Methods. A: effect of different concentrations of FC and ristocetin 1.0 mg/ml. B: effect of 40 μM FC in the presence of the aggregation antagonist RGDS peptide. C: effect of 40 μM FC in the presence of the cell-permeable 14-3-3 competitor MPAC peptide.
# Washed platelets were prepared from platelet-rich plasma (PRP) obtained from healthy donors who had not taken medication for at least 9 days before bleeding. Preparation of PRP was performed as described by Dai et al. (2005).
# PRPs were preincubated at 37° C. with different FC concentrations and, when indicated 0.1 mM MPaC or 0.75 mM RGDS. Aggregation was measured using a turbidometric platelet aggregometer Chrono-log 560 CA (Chrono-log Corporation, Pa., USA). 500 μl PRP were placed in a cuvette at 37° C. under continuous stirring at 1000 rpm. Aggregation was expressed as percentage of change in light transmission, with the value for the blank sample (PPP, Platelet-Poor Plasma) set at 100% and 0% for PRP.
# To determine whether the FC-promoted binding of platelets to vWF results in platelet aggregation, the effect of FC on platelet functionality was assayed using an optical aggregometer. […] To determine whether the FC effect involves 14-3-3 proteins, the MPAC peptide was tested in FC-induced platelet agglutination.
# [3] = molecular target: T2, 14-3-3 proteins / GPIbα (UniProt P07359+P49106); test: Overlay assay of 32P-14-3-3 on blotted platelet proteins; format: binding, human; settings: 10 μM FC; autoradiography
# T2 construct: GST (pGEX-2TK, with protein kinase A site at the junction, 32P-labelled) (N); made in house; host or cells: E. coli (14-3-3 probe); GPIbα endogenous, from boiled human platelet suspension
# Procedure: A: SDS-PAGE profile of platelet proteins. B: immunodecoration of GPIbα with anti-GPIbα ([…]) antidoby. C: overlay assay. Maize plasma membrane proteins (lanes 1, positive control) or platelet proteins (lanes 2) were separated by SDS-PAGE, blotted onto nitrocellulose membrane, incubated with ^32P-14-3-3 in the absence (−FC) or in the presence (+FC) of 10 μM FC and subjected to autoradiography as described in the Materials and Methods.
# SDS-PAGE was performed as described by Laemmli (1970), in a Mini Protean apparatus (Bio-Rad). The overlay assay was carried out according to Fullone et al. (1998), with minor modifications. The GST-fused 14-3-3 was labelled with [γ^32P]-ATP on cAMP-dependent protein kinase phosphorylation site present at junction between GST and the cloned protein, ^32P-labelled GF14-6 was used as probe in the overlay experiments. 30 μl of platelet suspension (2.0×10^8/mi) was boiled in Laemmli loading buffer, separated on SDS-PAGE and blotted on nitrocellulose membrane by semidry electroblotting. 20 μg of maize plasma membrane proteins were used as positive control. […] Nitrocellulose membrane was extensively washed with buffer HT and radioactivity detected by autoradiography. […]
# [4] = test system: platelet adhesion to immobilized vWF; test: Platelet adhesion to immobilized vWF; format: cell-based, human; settings: platelets pre-incubated with FC
# Procedure: 90 μl platelet suspension was incubated with purified vWF immobilized onto polystyrene wells. After washings, adherent platelets were determined measuring the endogenous acid phosphatase activity. +FC, platelets previously treated with 40 μM FC; +ADP, incubation in the presence of 50 μM ADP.
# Platelet adhesion to immobilized vWF was performed in polystyrene microtitre plate wells as described by Lu et al. (1994) with minor modifications. Briefly, plate wells were coated overnight at 4° C. with 100 μl 15 μg/ml purified vWF and 15 μg/ml BSA. After three washes with PBS unbound sites were saturated with 200 μl of 2 mg/ml BSA for 2 h at RT. After three washings with PBS, wells were incubated with 90 μl platelet suspension (2.0×10^8/ml) previously treated with 40 μM FC. Where indicated, wells were preloaded with 50 μM ADP. After 1 h incubation at RT, non-adherent platelets were removed by 7 washings with a buffer 10 mM Hepes containing 145 mM NaCl, 5 mM KCl, 1 mM MgCl2, 2 mM CaCl2, 10 mM glucose, 3.5 mg/ml BSA, pH 7.35. The number of vWF-bound platelet was calculated by measurement of endogenous acid phosphatase using 130 μl/well of developing buffer (10 mM p-nitrophenyl phosphate, 0.1% Triton X-100, 50 mM sodium citrate, pH 5.5). After 1 h at 37° C. incubation, the reaction was stopped by the addition of 10 μl of 1 M NaOH/well and the plates were read at 405 nm on an automated plate reader. […]
# [5] = molecular target: T3, 14-3-3 proteins / bL15Vp peptide (last 15 amino acids of the H+-ATPase) (Zea mays, UniProt P49106); test: Binding of 32P-labelled 14-3-3 (GF14-6) to resin-bound bL15Vp phosphopeptide; settings: 10 μM FC; resin-bound radioactivity
# T3 construct: GST (pGEX-2TK, with protein kinase A site at the junction, 32P-labelled) (N); made in house; host or cells: E. coli (14-3-3); peptide synthesized by Neosystem
# T3 sequence (P49106 1-261): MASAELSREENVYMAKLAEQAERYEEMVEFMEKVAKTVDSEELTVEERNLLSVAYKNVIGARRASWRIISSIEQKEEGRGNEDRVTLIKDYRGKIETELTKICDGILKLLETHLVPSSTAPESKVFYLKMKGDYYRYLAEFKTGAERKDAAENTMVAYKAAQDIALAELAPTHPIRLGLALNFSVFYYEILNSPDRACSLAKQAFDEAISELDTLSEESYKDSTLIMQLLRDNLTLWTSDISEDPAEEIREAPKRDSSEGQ
# Procedure: as §1, §2, §3, §4
# [6] = test system: isolated human platelets; test: Binding of [3H]FC to isolated human platelets; settings: 10 nM [3H]FC, displaced by 10 μM unlabelled FC; 1 h at 37° C.
# Procedure: 30 μl of platelet suspension (2.0×10^8/ml) were incubated for 1 h at 37° C. with 5×10^5 dpm [^3H]FC in 100 μl PBS containing 5 mM MgCl2. Where indicated, 10 μM cold FC was added (+FC). Platelets were then sedimented by centrifugation and radioactivity measured by scintillation counting.
# 30 μl of platelet suspension (2.0×10^8/ml) were incubated for 1 h at 37° C. with 5×10^5 dpm [^3H]FC in 100 μl PBS containing 5 mM MgCl2. To calculate specific binding, control sample was incubated with 10 μM FC. Platelets were centrifuged at 2000 g for 4 min in a refrigerated microcentrifuge and extensively washed in PBS containing 5 mM MgCl2. 500 μl perchloric acid was then added and radioactivity was measured in a liquid scintillation β-counter.
# In order to verify whether a FC binding activity is present in purified human platelets, a [^3H]FC analogue (Ballio et al., 1980) was utilised. 30 μl platelet suspension in PBS (2.0×10^8/ml) were incubated with 10 nM [^3H]FC, and after several washings, the platelet-associated radioactivity was measured. The specific [^3H]FC binding was evaluated by adding a saturating concentration of unlabelled FC.
# T2 sequence (P07359 17-652, one chain of several): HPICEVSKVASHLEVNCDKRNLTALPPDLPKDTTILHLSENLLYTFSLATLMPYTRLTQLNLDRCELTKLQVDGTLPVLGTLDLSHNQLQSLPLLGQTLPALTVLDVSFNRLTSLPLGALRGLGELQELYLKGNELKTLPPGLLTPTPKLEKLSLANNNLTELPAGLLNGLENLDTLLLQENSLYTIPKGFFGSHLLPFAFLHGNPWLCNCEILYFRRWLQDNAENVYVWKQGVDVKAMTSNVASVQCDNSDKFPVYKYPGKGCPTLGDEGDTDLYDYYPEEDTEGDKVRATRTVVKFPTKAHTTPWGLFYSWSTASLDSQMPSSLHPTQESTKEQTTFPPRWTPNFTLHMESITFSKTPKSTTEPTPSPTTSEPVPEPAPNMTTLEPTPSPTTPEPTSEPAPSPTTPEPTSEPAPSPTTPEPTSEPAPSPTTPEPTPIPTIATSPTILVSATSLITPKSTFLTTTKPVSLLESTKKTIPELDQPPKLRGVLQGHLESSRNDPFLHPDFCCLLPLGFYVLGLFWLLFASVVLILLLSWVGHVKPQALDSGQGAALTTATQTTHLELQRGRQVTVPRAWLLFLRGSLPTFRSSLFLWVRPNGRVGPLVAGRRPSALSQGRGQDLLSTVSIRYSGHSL
Compound,Effect of FC on 14-3-3 binding to immobilized bD15Lp peptide [1],"FC concentration giving maximum agglutination ([2]; PRP, 37° C.) [µM]","Platelet agglutination/aggregation induced ([2]; PRP, 37° C.)",Effect of FC on the interaction between 14-3-3 proteins and GPIbα (135 kDa band) [3],Number of platelets adherent to vWF ([4]; in the presence of 50 μM platelet agonist ADP (+ADP)),Number of platelets adherent to vWF ([4]; resting platelets (−ADP)),Effect of FC on 14-3-3 binding to immobilized bL15Vp peptide [5],Specific [3H]FC binding to platelets [6],"Inhibition of FC-induced platelet aggregation ([2]; 40 μM FC, 0.1 mM MPαC or 0.75 mM RGDS)"
"C=CC(C)(C)OC[C@H]1O[C@H](O[C@@H]2C3=C([C@H](C)COC(C)=O)C[C@H](O)[C@]3(C)/C=C3/[C@@H](COC)CC[C@H]3[C@@H](C)[C@H]2O)[C@H](O)[C@@H](OC(C)=O)[C@@H]1O [FC, fusicoccin]",in the presence of the toxin binding is generated,40,slight but reproducible agglutination in a dose-dependent manner,the interaction is increased,significantly increased,significantly increased,strongly stimulated,platelets possess specific FC binding activity,–
"C13H27CONH-Ser-lle-Arg-Tyr-Ser-Gly-His-pSer-Leu (Myristoyl-SIRYSGH[pS′]L) [MPαC, reference compound]",–,–,–,–,–,–,–,–,completely inhibits FC effect
ristocetin [reference compound],–,–,rapid platelet agglutination,–,–,–,–,–,–
